Test results reported in patent US20230123334A1, “AMINO LIPID COMPOUND, PREPARATION METHOD THEREFOR, AND APPLICATION THEREOF” (SHENZHEN SHENXIN BIOTECHNOLOGY CO., LTD., priority 2020, published 2023).

Experiments:
HEK293 cells [1] = test: Preliminary screening as mRNA vectors, EGFP mRNA transfection of HEK293 cells; format: cell-based; conditions: EGFP mRNA 50 ng per well, 96-well plates; percentage of GFP fluorescent cells relative to total number of cells (Hoechst)
Method: Cell line: HEK293 cells (ATCC CRL-1573™)
Medium: DMEM supplemented with 10% fetal bovine serum (Invitrogen)
Screening: cell transfection on 96-well plates
Detection (readout): percentage of the number of GFP fluorescent cells relative to the total number of cells (the total number of cells was determined using nucleus dye Hoechst). Lipofectamine2000 (Invitrogen) was used as the positive control.
Method: the experimental method was basically the same with Example 4, and the mass of EGFP mRNA (TriLink) for transfection was 50 ng per well.

HEK293 cells [2] = test: Preliminary screening as DNA vectors, GFP transfection of HEK293 cells; format: cell-based; conditions: amino lipid/DOPE liposome with 75 ng plasmid DNA (psin-EGFP-IRES-Puro); number of GFP-expressing cells divided by total nuclei (Hoechst)
How it was run: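 First, amino lipid and DOPE were vortexed in sodium acetate buffer (pH 5.6) to form liposomes. Next, these were held with 75 ng EGFP plasmid at room temperature for 30 min. Finally, HEK293 cells were added, cultured at 37° C., Hoechst-stained, and GFP+/total nuclei scored by imaging.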

Compound	Absolute mRNA transfection efficiency in HEK293 cells (HEK293 cells [1]) [%]	Absolute DNA transfection efficiency in HEK293 cells (HEK293 cells [2]) [%]
CCCCCCNc1nc(NCCN(C)C)nc(SCCCCCC)n1 [Compound D1S6N6]	0.8	
CCCCCCCNc1nc(NCCN(C)C)nc(SCCCCCC)n1 [Compound D1S6N7]	2.3	
CCCCCCCCNc1nc(NCCN(C)C)nc(SCCCCCC)n1 [Compound D1S6N8]	3.1	
CCCCCCCCCNc1nc(NCCN(C)C)nc(SCCCCCC)n1 [Compound D1S6N9]	1.8	
CCCCCCCCCCCNc1nc(NCCN(C)C)nc(SCCCCCC)n1 [Compound D1S6N11]	1.0	
CCCCCCCCCCCCNc1nc(NCCN(C)C)nc(SCCCCCC)n1 [Compound D1S6N12]	0.0	
CCCCCCCCCCCCCNc1nc(NCCN(C)C)nc(SCCCCCC)n1 [Compound D1S6N13]	1.8	
CCCCCCCCCCCCCCCNc1nc(NCCN(C)C)nc(SCCCCCC)n1 [Compound D1S6N15]	3.6	
CCCCCCCCCCCCCCCCNc1nc(NCCN(C)C)nc(SCCCCCC)n1 [Compound D1S6N16]	3.3	
CCCCCCCCCCCCCCCCCCNc1nc(NCCN(C)C)nc(SCCCCCC)n1 [Compound D1S6N18]	32.7	
CCCCCCCCCCCCCCCCCCSc1nc(NCCCCCCCCCCCCC)nc(NCCN2CCN(C)CC2)n1 [S18N13 D5]		0.0
CCCCCCCCCCCCCCCCCCSc1nc(NCCCCCCCCCCCCC)nc(NCCCN(C)C)n1 [S18N13 D6]		2.6
CCCCCCCCCCCCCCCCCCSc1nc(NCCCCCCCCCCCCC)nc(NCCN(CC)CC)n1 [S18N13 D7]		0.0
CCCCCCCCCCCCCCCCCCSc1nc(NCCCCCCCCCCCCC)nc(NCCCN2CCOCC2)n1 [S18N13 D8]		0.0
CCCCCCCCCCCCCCCCCCSc1nc(NCCCCCCCCCCCCC)nc(NCCCN2CCN(C)CC2)n1 [S18N13 D9]		1.8
CCCCCCCCCCCCCCCCCCSc1nc(NCCCCCCCCCCCCC)nc(NCC2CCN(C)CC2)n1 [S18N13 D10]		0.9
CCCCCCCCCCCCCCCCCCSc1nc(NCCCCCCCCCCCCCCC)nc(NCCN(C)C)n1 [S18N15 D1]		0.2
CCCCCCCCCCCCCCCCCCSc1nc(NCCCCCCCCCCCCCCC)nc(NCCN2CCOCC2)n1 [S18N15 D2]		0.0
CCCCCCCCCCCCCCCCCCSc1nc(NCCCCCCCCCCCCCCC)nc(NCCN2CCCC2)n1 [S18N15 D3]		0.2

Compound	Absolute mRNA transfection efficiency in HEK293 cells (HEK293 cells [1]) [%]	Absolute DNA transfection efficiency in HEK293 cells (HEK293 cells [2]) [%]
CCCCCCCCCCCCCCCCCCSc1nc(NCCCCCCCCCCCCCCC)nc(NCCN2CCCCC2)n1 [S18N15 D4]		0.2
CCCCCCCCCCCCCCCCCCSc1nc(NCCCCCCCCCCCCCCC)nc(NCCN2CCN(C)CC2)n1 [S18N15 D5]		0.0
CCCCCCCCCCCCCCCCCCSc1nc(NCCCCCCCCCCCCCCC)nc(NCCCN(C)C)n1 [S18N15 D6]		0.0
CCCCCCCCCCCCCCCCCCSc1nc(NCCCCCCCCCCCCCCC)nc(NCCN(CC)CC)n1 [S18N15 D7]		0.1
CCCCCCCCCCCCCCCCCCSc1nc(NCCCCCCCCCCCCCCC)nc(NCCCN2CCOCC2)n1 [S18N15 D8]		0.0
CCCCCCCCCCCCCCCCCCSc1nc(NCCCCCCCCCCCCCCC)nc(NCCCN2CCN(C)CC2)n1 [S18N15 D9]		0.1
CCCCCCCCCCCCCCCCCCSc1nc(NCCCCCCCCCCCCCCC)nc(NCC2CCN(C)CC2)n1 [S18N15 D10]		0.2
CCCCCCCCCCCCCCCCCCSc1nc(NCCCCCCCCCCCCCCCC)nc(NCCN(C)C)n1 [S18N16 D1]		0.0
CCCCCCCCCCCCCCCCCCSc1nc(NCCCCCCCCCCCCCCCC)nc(NCCN2CCOCC2)n1 [S18N16 D2]		0.0
CCCCCCCCCCCCCCCCCCSc1nc(NCCCCCCCCCCCCCCCC)nc(NCCN2CCCC2)n1 [S18N16 D3]		0.1
CCCCCCCCCCCCCCCCCCSc1nc(NCCCCCCCCCCCCCCCC)nc(NCCN2CCCCC2)n1 [S18N16 D4]		0.1
CCCCCCCCCCCCCCCCCCSc1nc(NCCCCCCCCCCCCCCCC)nc(NCCN2CCN(C)CC2)n1 [S18N16 D5]		0.2
CCCCCCCCCCCCCCCCCCSc1nc(NCCCCCCCCCCCCCCCC)nc(NCCCN(C)C)n1 [S18N16 D6]		0.0
CCCCCCCCCCCCCCCCCCSc1nc(NCCCCCCCCCCCCCCCC)nc(NCCN(CC)CC)n1 [S18N16 D7]		0.0
CCCCCCCCCCCCCCCCCCSc1nc(NCCCCCCCCCCCCCCCC)nc(NCCCN2CCOCC2)n1 [S18N16 D8]		0.0
CCCCCCCCCCCCCCCCCCSc1nc(NCCCCCCCCCCCCCCCC)nc(NCCCN2CCN(C)CC2)n1 [S18N16 D9]		0.0
CCCCCCCCCCCCCCCCCCSc1nc(NCCCCCCCCCCCCCCCC)nc(NCC2CCN(C)CC2)n1 [S18N16 D10]		0.1
CCCCCCCCCCCCCCCCCCNc1nc(NCCN(C)C)nc(SCCCCCCCCCCCCCCCCCC)n1 [S18N18 D1]		0.1
CCCCCCCCCCCCCCCCCCNc1nc(NCCN2CCOCC2)nc(SCCCCCCCCCCCCCCCCCC)n1 [S18N18 D2]		0.1

Compound	Absolute mRNA transfection efficiency in HEK293 cells (HEK293 cells [1]) [%]	Absolute DNA transfection efficiency in HEK293 cells (HEK293 cells [2]) [%]
CCCCCCCCCCCCCCCCCCNc1nc(NCCN2CCCC2)nc(SCCCCCCCCCCCCCCCCCC)n1 [S18N18 D3]		0.0
CCCCCCCCCCCCCCCCCCNc1nc(NCCN2CCCCC2)nc(SCCCCCCCCCCCCCCCCCC)n1 [S18N18 D4]		0.0
CCCCCCCCCCCCCCCCCCNc1nc(NCCN2CCN(C)CC2)nc(SCCCCCCCCCCCCCCCCCC)n1 [S18N18 D5]		0.0
CCCCCCCCCCCCCCCCCCNc1nc(NCCCN(C)C)nc(SCCCCCCCCCCCCCCCCCC)n1 [S18N18 D6]		0.4
CCCCCCCCCCCCCCCCCCNc1nc(NCCN(CC)CC)nc(SCCCCCCCCCCCCCCCCCC)n1 [S18N18 D7]		0.0
CCCCCCCCCCCCCCCCCCNc1nc(NCCCN2CCOCC2)nc(SCCCCCCCCCCCCCCCCCC)n1 [S18N18 D8]		0.0
CCCCCCCCCCCCCCCCCCNc1nc(NCCCN2CCN(C)CC2)nc(SCCCCCCCCCCCCCCCCCC)n1 [S18N18 D9]		0.0
CCCCCCCCCCCCCCCCCCNc1nc(NCC2CCN(C)CC2)nc(SCCCCCCCCCCCCCCCCCC)n1 [S18N18 D10]		0.0
CCCCCCCCCCCCCCCCCCSc1nc(NCCN(C)C)nc(N(CCCCCCCCCCCC)CCCCCCCCCCCC)n1 [S18^2N12 D1]		0.0
CCCCCCCCCCCCCCCCCCSc1nc(NCCN2CCOCC2)nc(N(CCCCCCCCCCCC)CCCCCCCCCCCC)n1 [S18^2N12 D2]		0.0
CCCCCCCCCCCCCCCCCCSc1nc(NCCN2CCCC2)nc(N(CCCCCCCCCCCC)CCCCCCCCCCCC)n1 [S18^2N12 D3]		0.2
CCCCCCCCCCCCCCCCCCSc1nc(NCCN2CCCCC2)nc(N(CCCCCCCCCCCC)CCCCCCCCCCCC)n1 [S18^2N12 D4]		0.0
CCCCCCCCCCCCCCCCCCSc1nc(NCCN2CCN(C)CC2)nc(N(CCCCCCCCCCCC)CCCCCCCCCCCC)n1 [S18^2N12 D5]		0.0
CCCCCCCCCCCCCCCCCCSc1nc(NCCCN(C)C)nc(N(CCCCCCCCCCCC)CCCCCCCCCCCC)n1 [S18^2N12 D6]		1.6
CCCCCCCCCCCCCCCCCCSc1nc(NCCN(CC)CC)nc(N(CCCCCCCCCCCC)CCCCCCCCCCCC)n1 [S18^2N12 D7]		0.0
CCCCCCCCCCCCCCCCCCSc1nc(NCCCN2CCOCC2)nc(N(CCCCCCCCCCCC)CCCCCCCCCCCC)n1 [S18^2N12 D8]		0.0
CCCCCCCCCCCCCCCCCCSc1nc(NCCCN2CCN(C)CC2)nc(N(CCCCCCCCCCCC)CCCCCCCCCCCC)n1 [S18^2N12 D9]		0.0
CCCCCCCCCCCCCCCCCCSc1nc(NCC2CCN(C)CC2)nc(N(CCCCCCCCCCCC)CCCCCCCCCCCC)n1 [S18^2N12 D10]		0.4
